Earlier results, collected in patent US20180187029A1, “COMPOSITION FOR FORMING HIGH RELEASE AND LOW FRICTION FUNCTIONAL COATINGS” (WHITFORD CORPORATION, priority 2015, published 2018).

Details: for Density / Vapor pressure / Viscosity: 20° C.; for Surface tension: 23° C.

Row | Density | Vapor pressure | Viscosity | Surface tension | Compound
1 | 0.99 g/Cm3 | 0.016 kPa | 2.3 mPa · s | 34.2 mN/m | COCCC(=O)N(C)C [3-methoxy-N,N-dimethylpropanamide]
2 | 1.03 g/Cm3 | 0.04 kPa | 1.8 mPa · s | 38.6 mN/m | CN1CCCC1=O [N-methyl-2-pyrrolidone]
